Test results reported in ChEMBL document CHEMBL1201862, “PubChem BioAssay data set” (2004).
Activity calls are given as the source filed them.

Experiments:
[1] = biological target: T1, Histone-lysine N-methyltransferase NSD2 (Homo sapiens, UniProt O96028); assay type: biochemical
T1 sequence (O96028 whole entry): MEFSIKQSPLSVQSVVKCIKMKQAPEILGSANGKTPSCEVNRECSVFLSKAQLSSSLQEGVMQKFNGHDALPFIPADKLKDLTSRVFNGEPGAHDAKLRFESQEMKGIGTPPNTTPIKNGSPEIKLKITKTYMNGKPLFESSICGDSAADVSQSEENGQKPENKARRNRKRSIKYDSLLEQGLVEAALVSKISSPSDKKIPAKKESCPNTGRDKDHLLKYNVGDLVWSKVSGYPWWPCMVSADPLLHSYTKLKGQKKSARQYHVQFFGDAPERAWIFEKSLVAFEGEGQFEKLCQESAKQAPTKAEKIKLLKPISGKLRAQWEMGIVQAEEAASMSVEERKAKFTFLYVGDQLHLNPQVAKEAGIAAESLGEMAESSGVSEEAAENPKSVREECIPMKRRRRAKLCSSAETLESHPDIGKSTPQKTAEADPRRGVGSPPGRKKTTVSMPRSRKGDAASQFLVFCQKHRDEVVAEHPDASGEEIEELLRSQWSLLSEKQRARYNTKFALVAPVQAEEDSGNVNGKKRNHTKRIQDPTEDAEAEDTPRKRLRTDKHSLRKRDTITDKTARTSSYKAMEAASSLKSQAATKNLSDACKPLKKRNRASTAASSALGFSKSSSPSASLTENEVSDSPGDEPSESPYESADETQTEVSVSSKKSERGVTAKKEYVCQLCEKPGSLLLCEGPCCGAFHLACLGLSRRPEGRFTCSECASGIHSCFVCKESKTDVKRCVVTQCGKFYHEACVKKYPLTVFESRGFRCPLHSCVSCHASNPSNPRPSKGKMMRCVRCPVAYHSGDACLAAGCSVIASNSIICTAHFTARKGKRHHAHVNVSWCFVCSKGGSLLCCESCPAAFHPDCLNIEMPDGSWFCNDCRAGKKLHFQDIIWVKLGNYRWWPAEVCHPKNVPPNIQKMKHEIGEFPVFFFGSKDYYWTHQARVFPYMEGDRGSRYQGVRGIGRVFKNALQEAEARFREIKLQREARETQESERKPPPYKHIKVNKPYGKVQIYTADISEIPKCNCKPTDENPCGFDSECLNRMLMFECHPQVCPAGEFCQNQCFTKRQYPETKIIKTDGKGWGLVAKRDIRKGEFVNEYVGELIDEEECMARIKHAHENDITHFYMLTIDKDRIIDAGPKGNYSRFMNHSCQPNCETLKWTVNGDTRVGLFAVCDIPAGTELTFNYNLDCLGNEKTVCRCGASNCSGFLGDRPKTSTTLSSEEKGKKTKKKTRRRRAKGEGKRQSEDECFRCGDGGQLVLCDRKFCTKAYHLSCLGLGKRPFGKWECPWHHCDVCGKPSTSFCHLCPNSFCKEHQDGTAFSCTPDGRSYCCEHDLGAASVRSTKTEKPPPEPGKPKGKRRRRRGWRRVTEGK

[2] = biological target: T2, DNA repair protein RAD52 homolog (Homo sapiens, UniProt P43351); assay type: functional, biochemical
T2 sequence (P43351 whole entry): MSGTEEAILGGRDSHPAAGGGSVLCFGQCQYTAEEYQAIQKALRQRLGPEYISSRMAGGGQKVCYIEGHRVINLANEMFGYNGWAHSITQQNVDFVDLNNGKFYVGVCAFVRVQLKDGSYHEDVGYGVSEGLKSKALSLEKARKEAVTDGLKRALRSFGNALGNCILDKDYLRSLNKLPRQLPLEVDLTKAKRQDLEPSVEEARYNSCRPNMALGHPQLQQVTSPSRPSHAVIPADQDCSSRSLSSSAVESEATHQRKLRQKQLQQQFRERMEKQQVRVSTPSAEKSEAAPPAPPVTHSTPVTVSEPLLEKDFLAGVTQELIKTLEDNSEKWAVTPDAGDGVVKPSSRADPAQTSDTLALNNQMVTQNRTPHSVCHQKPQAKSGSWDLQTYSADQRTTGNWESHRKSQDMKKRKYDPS

[3] = biological target: T3, Short transient receptor potential channel 4 (Mus musculus, UniProt Q9QUQ5); assay: calcium entry via TRPC4 opening agents – cell-based, HEK293 TRPC4/mu-opioid, Fluo-4 calcium, dose response (AID 434937); assay type: functional
T3 sequence (Q9QUQ5 whole entry): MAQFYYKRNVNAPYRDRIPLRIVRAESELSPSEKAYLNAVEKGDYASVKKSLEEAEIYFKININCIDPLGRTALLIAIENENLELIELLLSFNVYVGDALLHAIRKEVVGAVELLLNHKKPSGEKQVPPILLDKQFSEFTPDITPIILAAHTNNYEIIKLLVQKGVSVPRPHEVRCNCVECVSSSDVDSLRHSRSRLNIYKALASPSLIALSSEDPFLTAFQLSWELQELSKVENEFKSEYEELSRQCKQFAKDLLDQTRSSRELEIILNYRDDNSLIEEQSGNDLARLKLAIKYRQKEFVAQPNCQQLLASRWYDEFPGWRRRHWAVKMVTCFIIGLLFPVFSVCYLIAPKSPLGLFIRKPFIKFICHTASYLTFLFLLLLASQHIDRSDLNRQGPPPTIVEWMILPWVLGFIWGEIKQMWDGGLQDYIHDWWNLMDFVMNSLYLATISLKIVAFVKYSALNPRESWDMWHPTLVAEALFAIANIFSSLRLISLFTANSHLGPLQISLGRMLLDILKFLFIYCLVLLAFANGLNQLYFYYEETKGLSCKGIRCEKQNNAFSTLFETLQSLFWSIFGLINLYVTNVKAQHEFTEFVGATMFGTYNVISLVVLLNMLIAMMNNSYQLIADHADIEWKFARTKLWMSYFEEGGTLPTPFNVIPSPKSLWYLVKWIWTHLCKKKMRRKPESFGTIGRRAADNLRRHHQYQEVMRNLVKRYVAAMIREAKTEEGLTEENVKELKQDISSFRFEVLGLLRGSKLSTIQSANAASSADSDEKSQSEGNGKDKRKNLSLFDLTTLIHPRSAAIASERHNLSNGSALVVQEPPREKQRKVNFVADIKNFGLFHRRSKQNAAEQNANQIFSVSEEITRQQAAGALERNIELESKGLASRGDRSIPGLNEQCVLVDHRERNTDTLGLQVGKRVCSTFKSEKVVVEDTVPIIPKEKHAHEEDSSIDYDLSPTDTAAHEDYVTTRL

Estrogen receptor beta = Estrogen receptor beta (Homo sapiens, UniProt Q92731);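 also: recombinant ER-beta bound to coactivator SRC1 peptide in presence of estradiol agonist; inhibitors block coactivator peptide binding and lower the FRET signal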
Sequence of Estrogen receptor beta (Q92731 whole entry): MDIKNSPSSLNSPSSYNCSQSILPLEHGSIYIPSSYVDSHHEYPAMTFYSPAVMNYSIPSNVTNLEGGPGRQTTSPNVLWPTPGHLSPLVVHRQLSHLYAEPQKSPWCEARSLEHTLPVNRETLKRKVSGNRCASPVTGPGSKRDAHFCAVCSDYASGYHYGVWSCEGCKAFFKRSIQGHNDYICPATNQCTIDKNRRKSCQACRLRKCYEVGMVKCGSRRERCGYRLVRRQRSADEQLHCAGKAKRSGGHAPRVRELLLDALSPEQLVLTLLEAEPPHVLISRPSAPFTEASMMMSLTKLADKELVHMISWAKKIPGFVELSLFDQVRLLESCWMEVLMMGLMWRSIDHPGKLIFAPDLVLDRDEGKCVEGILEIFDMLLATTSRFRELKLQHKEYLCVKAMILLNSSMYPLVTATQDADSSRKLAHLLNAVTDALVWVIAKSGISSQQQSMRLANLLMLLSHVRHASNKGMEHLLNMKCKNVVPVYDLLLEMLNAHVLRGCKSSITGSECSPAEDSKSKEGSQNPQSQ

Vero [4] = assay: cells; assay type: functional; conditions: Chlorocebus sabaeus
Vero [5] = assay: cells; assay type: functional, cell-based; conditions: Chlorocebus sabaeus
[6] = viability of uninfected HEp-2 cells – cell-based, HTS, cytotoxicity control for RSV inhibitor project, dose response (AID 2410); assay type: functional; conditions: human respiratory syncytial virus
P388/ADR = assay: cells; assay type: functional; conditions: Mus musculus
P388 = assay: cells; assay type: functional; conditions: Mus musculus
SN12K1 = assay: cells; assay type: functional; conditions: Homo sapiens
[7] = biological target: Eukaryotic translation initiation factor 4E (Mus musculus, UniProt P63073); assay: blockers of eIF4G binding by eIF4E – biochemical, TR-FRET, dose response (AID 855); assay type: functional;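 also: potency for disrupting eIF4E binding to eIF4GI seen as loss of FRET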
Sequence of Eukaryotic translation initiation factor 4E (P63073 whole entry): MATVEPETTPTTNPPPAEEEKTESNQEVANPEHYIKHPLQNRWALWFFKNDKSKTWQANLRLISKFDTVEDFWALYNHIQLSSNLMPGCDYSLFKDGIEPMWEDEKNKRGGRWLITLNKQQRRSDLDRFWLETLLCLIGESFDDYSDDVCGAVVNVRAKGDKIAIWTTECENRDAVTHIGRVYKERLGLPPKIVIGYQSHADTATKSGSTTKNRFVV

SUMO-activating enzyme = SUMO-activating enzyme (Homo sapiens, UniProt Q9UBT2); assay: blockers of UBC9-mediated SUMO conjugation – biochemical, AlphaScreen, SUMOylation inhibitor project, confirmation (AID 2018); assay type: functional
Sequence of SUMO-activating enzyme (Q9UBE0 whole entry): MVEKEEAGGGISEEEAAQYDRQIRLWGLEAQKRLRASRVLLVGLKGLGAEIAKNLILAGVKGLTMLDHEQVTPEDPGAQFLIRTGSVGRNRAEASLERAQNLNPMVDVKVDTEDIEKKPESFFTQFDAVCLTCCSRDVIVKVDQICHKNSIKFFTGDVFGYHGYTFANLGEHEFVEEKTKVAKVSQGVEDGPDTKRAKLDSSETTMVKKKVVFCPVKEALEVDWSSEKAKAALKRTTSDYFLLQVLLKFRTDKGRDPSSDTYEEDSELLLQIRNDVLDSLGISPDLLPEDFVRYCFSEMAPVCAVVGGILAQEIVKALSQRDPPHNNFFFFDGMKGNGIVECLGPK
Sequence of SUMO-activating enzyme (Q9UBT2 whole entry): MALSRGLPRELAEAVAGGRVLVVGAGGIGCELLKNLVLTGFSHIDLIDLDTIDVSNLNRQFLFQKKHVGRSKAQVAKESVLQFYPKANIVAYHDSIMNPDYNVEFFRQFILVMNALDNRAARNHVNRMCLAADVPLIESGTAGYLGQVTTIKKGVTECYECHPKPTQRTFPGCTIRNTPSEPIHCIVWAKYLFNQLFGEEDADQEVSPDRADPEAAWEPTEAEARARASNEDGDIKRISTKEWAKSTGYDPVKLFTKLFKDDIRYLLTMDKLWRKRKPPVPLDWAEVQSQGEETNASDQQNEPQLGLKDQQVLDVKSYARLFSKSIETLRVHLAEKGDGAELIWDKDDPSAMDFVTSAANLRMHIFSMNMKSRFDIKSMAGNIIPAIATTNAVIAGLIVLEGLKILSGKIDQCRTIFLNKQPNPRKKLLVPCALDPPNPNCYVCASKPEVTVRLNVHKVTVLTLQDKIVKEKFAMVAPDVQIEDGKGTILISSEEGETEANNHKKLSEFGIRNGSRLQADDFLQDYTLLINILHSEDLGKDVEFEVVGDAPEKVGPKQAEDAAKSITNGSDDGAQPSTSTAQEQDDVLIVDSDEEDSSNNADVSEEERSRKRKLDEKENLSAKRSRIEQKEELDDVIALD

[8] = blockade of melanocortin 4 receptor signaling – cell-based, plate reader, cherry pick, counter-screen for LGR2 antagonist project, dose response (AID 743444); assay type: functional;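 also: transfected HEK 293 cells stimulated with alpha-MSH peptide; potency of inhibitors of the alpha-MSH evoked signal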
[9] = viability loss in HEK293 cells – cell-based, plate reader, cherry-picked samples, cytotoxicity control, dose response (AID 743446); assay type: functional
[10] = A549 cell cytotoxicity, dose response, cytotoxicity control, plate reader, cherry-pick, antagonist series (AID 743412); assay type: functional, cell-based
[11] = blockers of bursicon-stimulated LGR2 cAMP reporter – cell-based, HEK293, CRE-luciferase reporter, cherry pick, set 2, dose response (AID 743343); assay type: functional;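 also: transfected cells were stimulated with diluted bursicon conditioned medium after compound addition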
[12] = biological target: T4, Mannose-6-phosphate isomerase (Homo sapiens, UniProt P34949); assay: MPI inhibition at elevated mannose 6-phosphate – biochemical, fluorescence intensity, high mannose 6-phosphate, primary screen (AID 1220)
T4 sequence (P34949 whole entry): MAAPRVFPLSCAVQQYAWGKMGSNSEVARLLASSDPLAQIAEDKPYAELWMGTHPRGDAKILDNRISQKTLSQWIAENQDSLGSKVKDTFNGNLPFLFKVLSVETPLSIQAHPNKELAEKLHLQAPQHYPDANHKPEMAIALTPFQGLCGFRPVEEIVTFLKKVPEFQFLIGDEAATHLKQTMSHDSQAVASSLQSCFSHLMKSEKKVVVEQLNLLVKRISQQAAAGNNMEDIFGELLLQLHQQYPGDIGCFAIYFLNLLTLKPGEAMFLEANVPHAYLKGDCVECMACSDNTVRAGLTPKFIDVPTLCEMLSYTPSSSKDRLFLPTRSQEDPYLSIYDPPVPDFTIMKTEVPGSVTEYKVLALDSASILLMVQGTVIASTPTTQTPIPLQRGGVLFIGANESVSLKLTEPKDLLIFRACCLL

Vero [13] = assay: viability of Vero cells under compound – cytotoxicity control for flavivirus capping enzyme inhibitors (AID 588742); assay type: functional; conditions: Chlorocebus sabaeus
Protein Wnt-3a = Protein Wnt-3a (Mus musculus, UniProt P27467); assay: antagonism of Wnt3a pathway luciferase reporter – Wnt-LIGHT cells, luminescence, selectivity assay for Gli-SUFU antagonist project, dose response (AID 651570); assay type: functional; conditions: read-out: IC50_Mean;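 also: Wnt-LIGHT reporter cells stimulated with conditioned medium from Wnt3a-producing cells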
Sequence of Protein Wnt-3a (P27467 whole entry): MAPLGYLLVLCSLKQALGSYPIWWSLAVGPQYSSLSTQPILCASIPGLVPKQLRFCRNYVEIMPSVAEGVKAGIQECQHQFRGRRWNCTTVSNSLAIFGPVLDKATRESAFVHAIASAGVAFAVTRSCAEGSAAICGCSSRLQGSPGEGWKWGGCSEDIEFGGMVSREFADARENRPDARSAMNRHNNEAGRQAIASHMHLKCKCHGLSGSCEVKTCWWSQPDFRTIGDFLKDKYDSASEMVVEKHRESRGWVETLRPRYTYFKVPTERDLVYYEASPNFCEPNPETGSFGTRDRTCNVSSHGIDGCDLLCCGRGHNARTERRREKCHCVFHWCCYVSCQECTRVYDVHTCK

[14] = biological target: T5, Small ubiquitin-related modifier 1 (Homo sapiens, UniProt P63165); assay: SUMO1 protein-protein binding blockers, potency – biochemical, FRET, dose response (AID 624383); assay type: functional; conditions: read-out: IC50_Mean
T5 sequence (P63165 whole entry): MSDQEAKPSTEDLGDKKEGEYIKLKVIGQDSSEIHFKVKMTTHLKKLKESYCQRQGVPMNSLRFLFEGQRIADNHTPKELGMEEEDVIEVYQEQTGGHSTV

[15] = biological target: T5, Small ubiquitin-related modifier 1; assay: SUMO1 protein interaction blockers, potency – biochemical, fluorescence polarization, uHTS hits, dose response (AID 624382); assay type: functional; conditions: read-out: IC50_Mean

CCN(CC)CCN=C(S)Nc1ccc2nc(N3CCCC3)cc(C)c2c1
AC50 [1]: > 20 µM (inactive)
AC50 [2]: 3.9 µM (active)

O=C(O)C1C2C=CC(C2)C1C(=O)NC1CCN(Cc2ccccc2)CC1 (stereo not given)
EC50 [3]: 5.31 µM (active)

O=C(NCc1ccco1)C1(S(=O)(=O)c2ccc(Cl)cc2)CC1
IC50 (Estrogen receptor beta): > 50 µM (not active)

Cc1ccc2cc(C#N)c(NCCNC(S)=NCCCN(C)C)nc2c1C
CC50 (Vero [4]): 15.1 µM (active)
IC50 (Vero [5]): > 25 µM (active)
CC50 [6]: 13.2 µM (active)
AC50 [2]: 16.9 µM (active)

CC1C(=O)CC(c2cccs2)N(N=O)C1c1cccs1 (stereo not given)
GI50 (P388/ADR): 17.3 µM (inactive)
GI50 (P388): 20.4 µM (inactive)
GI50 (SN12K1): 57.8 µM (inactive)

O=C(N[C@@H](c1ccccc1)[C@@H](O)C(=O)OCc1ccc2c(c1)OCO2)c1ccccc1
GI50 (P388/ADR): 72.6 µM (inactive)
GI50 (P388): 64.7 µM (inactive)
GI50 (SN12K1): > 100 µM (inactive)

O=C(c1cccn2c(=O)c3cc(Cl)ccc3nc12)N1CCN(Cc2ccc3c(c2)OCO3)CC1
IC50 [7]: > 64 µM (inactive)

Cc1ccc(C(=O)Nc2nc(-c3cccnc3)cs2)o1
IC50 (Estrogen receptor beta): 21.2 µM (active)

N=C1/C(=C/c2cccn2Cc2ccc(Cl)cc2)C(=O)N=C2SC=CN12
IC50 (SUMO-activating enzyme): 47.6 µM (active)

CCOc1ccc(-c2ccc(SCC)nn2)cc1
AC50 [8]: 8.8 µM (active)
AC50 [9]: > 52 µM (inactive)
AC50 [10]: > 52 µM (inactive)
AC50 [11]: 7.12 µM (active)

CCOC(=O)/C=C/c1c[nH]c(=O)[nH]c1=O
GI50 (P388/ADR): > 66.4 µM (inactive)
GI50 (P388): > 75 µM (inactive)
GI50 (SN12K1): > 75 µM (inactive)

COC(=O)C1=C(C(=O)OC)SC(=C2C(=S)C(C)(C)N(C(=O)C3CC3)c3ccccc32)S1
IC50 [12]: 6.47 µM (active)

O=C(Nc1ccc2c(c1)CCCN2C(=O)c1cccs1)c1ccccc1
CC50 (Vero [13]): > 40 µM (active)

CCN1CCCC1CNC(=O)c1cc2c(OC)cccc2[nH]1 (stereo not given)
EC50 [3]: 6.68 µM (active)

Cc1nc2ccccc2n1CC(=O)NC(C)C1CC2CCC1C2 (stereo not given)
IC50 (Protein Wnt-3a): 4.3 µM (active)

CC1CCCN(c2nc3ccccc3nc2C(C#N)S(=O)(=O)c2ccccc2)C1 (stereo not given)
IC50 (SUMO-activating enzyme): 22.1 µM (active)

Cc1cc(-c2nn(-c3ccccc3F)cc2CNCCc2c[nH]cn2)c(C)s1
EC50 [3]: 0.0427 µM (active)

O=c1oc2c(ccc3occc32)c(N2CCCCC2)c1-c1ccccc1
GI50 (P388/ADR): 48.6 µM (inactive)
GI50 (P388): 34.7 µM (inactive)
GI50 (SN12K1): > 100 µM (inactive)

O=C(OCC1CC(c2ccccn2)=NO1)c1ccc(Br)cc1 (stereo not given)
IC50 [7]: > 64 µM (inactive)

O=S(=O)(NCCc1ccc(F)cc1)c1cccc2cccnc12
IC50 [7]: 50 µM (inactive)

CCOC(=O)CCC(NC(=O)c1ccc(NCN2C(=O)CCC2=O)cc1)C(=O)OCC (stereo not given)
IC50 (Estrogen receptor beta): > 50 µM (not active)

COc1ccc(C(c2sc3nc(C)nn3c2O)N2CCc3ccccc3C2)cc1 (stereo not given)
IC50 [12]: 9.88 µM (active)

CCCCCCc1cn([C@H]2C[C@H](O)[C@@H](CO)O2)c(=O)[nH]c1=O
GI50 (P388/ADR): > 100 µM (inactive)
GI50 (P388): > 100 µM (inactive)
GI50 (SN12K1): > 100 µM (inactive)

CCC(C)[C@@H](CN)NCC1(c2ccccc2)CC1 (stereo not given in full)
IC50 [14]: 18.4 µM (active)
IC50 [15]: > 66.6 µM (inactive)

CC(=O)C(=Cc1cn(C)c(=O)n(C)c1=O)C(C)=O
GI50 (P388/ADR): 96.6 µM (inactive)
GI50 (P388): 80.7 µM (inactive)
GI50 (SN12K1): 100 µM (inactive)
